Test results from a melting point compilation (Tetko et al.; mined from patent text by program, amines drawn as free bases though some values may be those of a salt).

SMILES | melting point [°C]
C=CCOc1ccc2c(c1)CCNC2=O | 105 to 107
Cc1nccn1-c1ccc([N+](=O)[O-])cc1F | 106 to 107
Nc1ccc(CCN2CCN(c3ccc(N)cc3)CC2)cc1 | 156 to 158
CN(C)C=C1CCc2ccn(C)c2C1=O | 49 to 51
Clc1ccc2c(N3CCCC4CCCC(N5CCCC5)C43)ccnc2c1 (configuration not stated) | 136 to 138
CN1CCN(c2ccc(-c3cnc4c(c3)N(Cc3cc(F)ccc3F)CCN4)cn2)CC1 | 192 to 193
O=C1CCc2cc(OCc3ccccc3)ccc21 | 105 to 106
CS(=O)(=O)c1ccc(-c2oc3ccccc3c(=O)c2-c2ccc(F)c(Cl)c2)cc1 | 196
CN(C)C=Nc1c(Cl)cc(N=Cc2ccc3c(c2)OCO3)cc1Cl | 155 to 156
COc1cc(COc2nn(-c3ccccc3)cc2C=O)ccc1OCc1nc(-c2ccccc2)sc1C | 164 to 165
Cn1cc(C2=C(c3c4n(c5ccccc35)CCN(C(=S)n3ccnc3)C4)C(=O)NC2=O)c2ccccc21 | 244 to 247
CN(C(=O)c1ccc(-c2ccccc2)cc1)c1ccccc1 | 99 to 102
OC(c1cccc(F)c1)(c1cccc(F)c1)C1CCNCC1 | 117 to 118
CC(C)(O)C(CS(=O)(=O)c1ccccc1)C(F)(F)F (configuration not stated) | 59 to 60
O=C(Cc1ccccc1C(F)(F)F)c1c(O)c2cccnc2n(-c2ccccc2)c1=O | 140 to 142
O=C(N[C@H]1CN2CCC1CC2)C(O)(c1ccccc1)C1CCCC1 (some centres not stated) | 69.8 to 73.3
O=C(c1ccc(Cl)cc1)c1cccc(Br)n1 | 83.5 to 84
Nc1nc(N)c2ncn(C(O)C3C=CCC3)c2n1 (configuration not stated) | 152 to 155
O=C(N1CCCC1)N1Cc2c(C3=NCCO3)ncn2-c2ccccc21 | 217 to 220
COc1ccc(-c2cc(F)ccc2C#N)cc1 | 145 to 147
N#CC(=Cc1ccc(CBr)cc1)c1ccccc1 | 61

SMILES | melting point [°C]
O=C(c1cn(C(=O)c2ccc(Cl)cc2)c2ccccc12)C1CSC(c2cccnc2)N1 (configuration not stated) | 80 to 84
O=[N+]([O-])c1cn(-c2cccnc2)nc1C(F)(F)F | 121 to 123
COc1ccc(CNc2nnc(-n3ccnc3)c3ccc(Cl)cc23)cc1Cl | 221 to 222
CC1(C)COC(=O)N1c1nc(-c2cccc(C#N)c2)cs1 | 181 to 183
c1ccc(-n2c3ccccc3c3c2ccc2c4ccccc4n(-c4ccccc4)c23)cc1 | 166
Cc1cccc(-c2nccc3nc(N)nn23)c1 | 125 to 126
OC1CSC(Oc2cnc(Cl)c(F)c2)C(O)C1O (configuration not stated) | 198 to 200
CS(=O)(=O)c1ccc(-n2nc(C(F)(F)F)cc2-c2ccc(-c3ncco3)cc2)cc1 | 190 to 192
Cc1cc(N)nc(Br)c1 | 99
C[N+]([O-])=C(Cn1ccnc1)c1ccc2ccccc2c1 | 112 to 114
CC1(C)CCC(C)(C)c2cc([N+](=O)[O-])c([N+](=O)[O-])cc21 | 200
OC(CCc1cccnc1)CSc1ccc(C2CCCCC2)cc1 (configuration not stated) | 49
O=[N+]([O-])C1NC=CN1c1cccnc1 (configuration not stated) | 261
Cn1cc(S(=O)(=O)NC(C)(C)C)cc1C=O | 97 to 98
O=Cc1c(F)ccc(Cl)c1Cl | 55 to 57
c1ccc2c(C3CCC4(CC3)OCCO4)c[nH]c2c1 | 163 to 165
Fc1ccc(Cn2cnc3ccccc32)cc1 | 60 to 62
O=C1Cn2ncnc2-c2sccc2N1 | 213 to 215
COCCCCN1C(=O)N(c2ccc(C#N)c(C(F)(F)F)c2)C(=O)C1(C)C | 80 to 81
COc1cc(Nc2c(C#N)cnc3cc(-c4ccc(N5CCOCC5)cc4)ccc23)c(Cl)cc1Cl | 162 to 164
Clc1nc2cccc3c2n1CCC3 | 78

The remaining lines, values ahead:

melting point [°C] | SMILES
140 to 142 | CC(C)Oc1cc(COc2cc(CCC(=O)O)n(-c3ccccc3)n2)cc(COc2ncc(C(F)(F)F)cc2Cl)c1
248 to 250 | CCOC(=O)c1cn(-c2cc(OC)c(F)cc2F)c2c(C)c([N+](=O)[O-])c(F)cc2c1=O
235 to 236 | O=C(N[C@H](Cc1ccc(F)cc1)[C@@H](O)c1ccc(C(F)(F)F)cc1)c1ccc(F)c2ccccc12 (racemic)
279 to 281 | COc1ncccc1-c1nc(C(N)=O)c2[nH]c(=O)n(-c3ccccc3)c2n1
119 to 124 | CCOc1ncc(Cl)cc1C1OC(=O)NC1=O (configuration not stated)
> 225 | COc1ccccc1CN[C@H]1CCCN[C@H]1C1CCCCC1 (relative stereo)
68 to 69 | C=CCOC(=O)c1c(C)nc2c(cnn2CCC(=C)C)c1N
193 to 194 | COc1cc(N)c(Cl)cc1C(=O)NC1CCN2CCCC2C1 (configuration not stated)
258 to 259 | CC(=O)c1c(F)cc2c(=O)c(C(=O)O)cn3c2c1OCC3C (configuration not stated)
90 to 91 | COCC1(N2C(=O)NC(=O)C2=O)C=CC=C(OC2CC(F)CC2Cl)C1 (configuration not stated)
189 to 191 | COC(=O)c1ccc(I)c2c(=O)c3ccccc3[nH]c12
124 to 125 | COC=C(C(=O)OC)c1csc2ccc(CBr)cc12
110 to 129 | COC(=O)c1ccc(Cc2cccc3ccc(CC(C)C(=O)O)cc23)c(OC)c1 (configuration not stated)
169 to 171 | O=c1[nH]c(=O)n(C2OC(CO)CC2O)cc1F (configuration not stated)
75 to 80 | OCC1OC(n2cnc3c(NCC(c4ccc(F)cc4)c4ccc(F)cc4)ncnc32)C(O)C1O (configuration not stated)
150 to 152 | CC1C=C(c2nnn[nH]2)CN(CC(=O)O)C1 (configuration not stated)
78 to 88 | CC(=O)Nc1cnc(-c2ccc(CC(C)N3CC(c4cccc(Cl)c4)OC3=O)cc2)o1 (configuration not stated)
150 to 155 | CC(C)(CC(O)(Cn1ccc(=O)c2ccccc21)C(F)(F)F)c1cc(F)ccc1OC(F)F (configuration not stated)
158 to 160 | O=C(O)COc1cccc2c1CCC(Cc1coc(C(c3ccccc3)c3ccccc3)n1)C2 (configuration not stated)
115 to 117 | O=C(NCc1ccccc1)c1sc2ccccc2c1Br

melting point [°C] | SMILES
75 to 76 | OCCN(CCO)CC(c1ccc(Cl)cc1)c1ccc(Cl)cc1
99 to 100 | CCCc1cc(Cl)c(O)c2c(C)c(Cc3ccc(OC)cc3)oc12
128 to 130 | CNC(=O)c1cccc(C(=O)OC)c1
155 to 157 | CN(CCOc1ccc(NS(C)(=O)=O)cc1)CCc1ccc(N)cc1
178 to 183 | Cc1cc(F)ccc1-c1cc(NCCNC(=O)NC2CCCCC2)nc2c1C=NC(=O)C2c1c(F)cccc1F (configuration not stated)
134 to 135 | CC(C)CCOc1c(-c2ccc(S(C)(=O)=O)cc2)cnn(-c2cccc(Cl)c2)c1=O
62 to 64 | CCn1ncc2c1ncc1c(OCCCN(C)C)nc3cc(C)nn3c12
127 to 128 | CC(C)Cn1c(=O)n(C)c(=O)c2c(SCCCC#N)n(Cc3cccc4ccccc34)cc21
143 | CC1(C)CC(C)(C)c2cc(CC(=O)O)ccc21
162 to 163 | CCOC(=O)c1cn(-c2cccc(Oc3ccc([N+](=O)[O-])cc3)c2)cn1
137 to 138 | COCCCN1C(=O)CC(=O)Nc2ccccc21
224 to 227 | CCNC(=O)CC1CCN(Cc2cnc3cc(NC(=O)c4ccc(-c5ccc(F)cc5)cc4)ccc3c2)CC1
133 to 135 | O=C(CCCCCCCCC(=O)OC1CCN(O)CC1)OC1CCN(O)CC1
225 to 230 | COc1ccc2c(Cc3c(Cl)cncc3Cl)nnc(-c3nccs3)c2c1
249 to 252 | Cc1ccc(Nc2c(N)cc(C(=O)O)cc2S(N)(=O)=O)cc1
96.1 | CCCCCCCCCc1ccc(-c2ccc(OCC(OC3CCCCO3)C(F)(F)F)nn2)cc1 (configuration not stated)
123 to 125 | CC(=O)Oc1cc2c(nc1C)C(=O)OC2=O
140 | NC(=O)CCc1c[nH]c2ccccc12
212 to 215 | CNS(=O)(=O)Cc1ccc(Nc2nc(Nc3ccccc3)c3cc(OC)ccc3n2)cc1
87 to 90 | CC(C)(C)OC(=O)NCC(N)C(=O)N1CCCCC1 (configuration not stated)

melting point [°C] | SMILES
85 to 96 | O=C(O)C1CCc2ccccc2N1C(=O)CS (configuration not stated)
73 to 76 | CCCc1c(OCCCCCCCC(=O)O)ccc(C(C)=O)c1O
164 to 165 | CCCCCCCc1ccc(CC2C=CC(Oc3ccc(C(=O)O)o3)=C3N=C4CCCCC4=C32)cc1 (configuration not stated)
137 to 140 | O=C(NC(Cc1ccccc1)C(=O)O)OCC1c2c(c3ccccc3c3ccccc23)-c2c1c1ccccc1c1ccccc21 (configuration not stated)
180 to 181 | CC1=NC(NC(=O)Nc2cccc(C)c2)C(=O)N(CC(=O)C(C)(C)C)c2c(C)cccc21 (configuration not stated)
124 to 127 | Cc1oc(-c2ccccc2)nc1CCOc1ccc(CC(Nc2ccccc2C(=O)c2ccccc2)C(=O)O)c2sccc12 (configuration not stated)
202 to 204 | Cc1occc1C(=O)Nc1ccc(C(=O)N2Cc3ccccc3Cc3ccccc32)cc1
54.2 | COC(=O)CCCCCCCCCCCCCCCO
127 to 129 | CS(=O)(=O)ON=C(C#N)C=Cc1ccccc1
175 to 178 | COc1ccc(NC(=O)c2ccc(-c3ccc(-c4noc(CO)n4)cc3C)cc2)cc1N1CCN(C)CC1
195 to 196 | O=C1c2ccc(SCCO)cc2C(=O)c2cc3ccccc3cc21
89 to 90 | COC(=O)C(=CNc1ccc(F)c(F)c1OCC(C)OS(=O)(=O)c1ccc(C)cc1)C(=O)OC (configuration not stated)
168 | CC(C)(C)OC(=O)Nc1nc2cc(N)ccc2[nH]1
63 to 65 | CC(C)(C)OC(=O)NCC(=O)c1ccccc1
90 to 91 | O=C1c2ccccc2C(=O)N1CCCCCCc1cnc2ccccc2c1
80 to 81 | CCc1cc(Cl)c2cccc(OC)c2n1
> 320 | CCCCCCNc1nc2nc(N)[nH]c(=O)c2s1
183 to 184 | Cc1ccc2cc(C3=NCCS3)[nH]c2c1NS(=O)(=O)c1cccs1
81 to 86 | COC1=C(C(=O)c2ccc(Cl)cc2Cl)C(=O)CCC1
155 to 156 | COc1cccc(-c2n[nH]c(-c3ccccc3CO)n2)c1
